Reference: patent US7105656B2, “Compositions and methods for treating hematologic malignancies and multiple drug resistance” (The Brigham and Women's Hospital, Inc., priority 2000, dated 2006)

Legend:
KB cells = assay: Multicellular spheroid model, doxorubicin toxicity by BCECF labeling; format: cell-based; conditions: doxorubicin 1 μM
Method: Multicellular spheroid model: A multicellular spheroid model was developed using KB cells grown at high density of membrane permeable supports. Briefly, KB cells in suspension were plated at high density (˜10^7 cells/cm^2) on 0.33 cm^2 collagen-coated permeable supports (Corning-Costar, Cambridge, Ma.) and allowed to grow as domes on these substrates for two weeks. Media was replaced every other day and at two weeks, multicellular spheroids were subjected to a 24 or 48 hr period of hypoxia or normoxia, in the presence or absence of the P-glycoprotein substrate doxorubicin (1 μM final concentration) (Sigma, St Louis, Mo.). At the termination of the experiment, the number of viable, intact cells was determined by measurement of the amount of esterase cleavable fluorescent marker 2′7′-bis(carboxyethyl)-5(6)-carboxyfluorescein pentaacetoxymethyl ester (BCECF-AM, 5 μM final concentration Calbiochem, San Diego, Calif.) retained over a 30 min period, a sensitive measurement cytoxicity) (Wierda et al., J. Immunol. […] Multicellular spheroids were washed three times in HBSS and fluorescence intensity was measured on a fluorescent plate reader. […]

SUMO-1 = target: T1, SUMO-1 (Homo sapiens, UniProt P63165); assay: sumo-1 antisense oligonucleotides, induction of HIF-1 in hypoxia; format: cell-based
T1 construct: endogenous in cells
T1 sequence (P63165 1-97 limits assumed): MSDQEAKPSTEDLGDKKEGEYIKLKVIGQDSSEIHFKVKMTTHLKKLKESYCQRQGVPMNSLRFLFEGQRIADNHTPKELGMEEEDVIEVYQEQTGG
From the text: Posttranslational SUMOlation influences HIF-1α regulated gene expression. In order to test that HIF-1 is SUMO-1 modified, we conducted experiments which indicated an association of HIF-1α both with endogenous as well as epitope (hexahistidine)-tagged SUMO-1 HIF-1α induction was rapid and was detected by immunopecipitating SUMO-1. To further investigate the impact of SUMOlation on HIF-1 conveyed gene expression, we designed antisense oligonucleotides AS31(SEQ ID NO: 22), AS64 (SEQ ID NO: 23), and AS617 (SEQ ID NO: 24) directed against SUMO-1. […] Thus, we were able to modify the HIF-1 conveyed hypoxia adaptive response by administration of sumo-1 antisense oligonucleotides.

mdr1 gene = assay: Genechip expression array screen of epithelial cells for mdr1 induction; format: cell-based, human; conditions: T84 epithelial cells, exposure similar to hypoxia (6 and 18 hrs)
Method: Analysis of messenger RNA levels by RT-PCR: The transcriptional profile of epithelial cells exposed to ambient hypoxia was assessed in RNA derived from control or hypoxic epithelia (T84 cells at 6 or 18 hr hypoxia) using quantitative genechip expression arrays (Affymetrix, Inc., Santa Clara, Calif.) (Lockhart et al., Nat. Biotechnol., 14, 1675–1680, 1996). RT-PCR analysis of mRNA levels was performed using DNAse treated total RNA as previously described (Taylor et al., J. Biol. Chem., 274, 19447–19450, 1999) using primers specific for mdr1 (forward primer 5′-AACGGAAGCCAGAACATTCC-3′ (SEQ ID NO: 37) and reverse primer 5′-AGGCTTCCTGTGGCAAAGAG-3′ (SEQ ID NO: 38), 180 bp fragment), HIF-1α (forward primer 5′- CTCAAAGTCGGACAGCCTCA-3′ (SEQ ID NO: 39) and reverse primer 5′-CCCTGCAGTAGGTTTCTGCT -3′ (SEQ ID NO: 40), 460 bp fragment) or control β-actin (forward primer 5′-ATGACTTCCAAGCTGGCCGTGGCT-3′ (SEQ ID NO: 41) and antisense primer 5′-TCTCAGCCCTCTTCAAAAACTTCTC-3′ (SEQ ID NO: 42), 661 bp fragment). Each primer set was amplified using 25 cycles, unless otherwise noted, of 94° C. for 1 min, 60° C. for 2 min, 72° C. for 4 min, and a final extension of […] for 7 min. The PCR reactions were then visualized on a 1.5% agarose gel containing 5 μg/ml of ethidium bromide. […]

| Molecule | induction of HIF-1 in hypoxia (SUMO-1) | other results |
| --- | --- | --- |
| COc1cccc2c1C(=O)c1c(O)c3c(c(O)c1C2=O)C[C@@](O)(C(=O)CO)C[C@@H]3O[C@H]1C[C@H](N)[C@H](O)[C@H](C)O1 [doxorubicin] | – | degree of cell death (number of intact cells, BCECF labeling) (KB cells; 24 hr hypoxia vs normoxia, p<0.01): significantly decreased; degree of cell death (number of intact cells, BCECF labeling) (KB cells; 48 hr hypoxia vs normoxia, p<0.001): significantly decreased |
| AS31: antisense oligonucleotide directed against SUMO-1 (antisense CACAGCAGCGGCCTCGGGTA; chemistry not given here) | able to modify the induction of HIF-1 in hypoxia | – |
| AS64: antisense oligonucleotide directed against SUMO-1 (antisense CATGATGACGGTGGCTTCAC; listed as DNA, chemistry not given here) | able to modify the induction of HIF-1 in hypoxia | – |
| AS617: antisense oligonucleotide directed against SUMO-1 (antisense GTGACCTCTCTGTGCACACG; listed as DNA, chemistry not given here) | able to modify the induction of HIF-1 in hypoxia | – |
| IFN-γ: proinflammatory cytokine (protein, UniProt P01579 24-161, looked up) Interferon gamma: QDPYVKEAENLKKYFNAGHSDVADNGTLFLGILKNWKEESDRKIMQSQIVSFYFKLFKNFKDDQSIQKSVETIKEDMNVKFFNSNKKKRDDFEKLTNYSVTDLNVQRKAIHELIQVMAELSPAAKTGKRKRSQMLFRG | – | induction of mdr1 (mdr1 gene): did not induce mdr1 |
